Values quoted from earlier work as cited in patent US20170042147A1, “A miticide composition of prolonged action and its manufacturing process, a miticide strip and a procedure to control Varroa destructor mite” (COOP. DE TRABAJO APÍCOLA PAMPERO LTDA, priority 2014, published 2017).

Test system: Varroa
Conditions: bee hives without brood; use in Europe

O=C(O)C(=O)O [Oxalic acid]
efficacy against Varroa: excellent efficacy
